The text below walks through data of patent US7538241B2, “Hsp90 family protein inhibitors” (Kyowa Hakko Kogyo Co., Ltd., priority 2003, dated 2009).

This assay concerns human mammary cancer-derived KPL-4 cells. Put plainly: Cell growth inhibition test with KPL-4 cells (WST-1). The following applies: KPL4, 72 hours, read-out: 50% growth inhibition concentration (GI50). Type of assay: cell-based. How it is done:
In a 96-well plate (Nunc), human mammary cancer-derived KPL-4 cells were sown in an amount of 2000 cells/well, and pre-incubated in 10% fetal calf serum (FCS)-containing Dulbecco Modified Eagle Medium (DMEM) (incubation medium) in a 5% carbon dioxide incubator at 37° C. for 24 hours. A dimethylsulfoxide (DMSO) solution of a test compound controlled at 10 mmol/L was stepwise diluted with the incubation medium, and added to each well in a total amount of 100 μL/well, and incubated in the 5% carbon dioxide incubator at 37° C. for 72 hours. After the incubation, WST-1 {4-[3-(4-Iodophenyl)-2-(4-nitrophenyl)-2H-5-tetrazolio]-1,3-benzene disulfonate}-labeled mixture (Rosh Diagnostic) diluted 2-fold with the incubation medium was added thereto in an amount of 20 μL/well, and incubated in the 5% carbon dioxide incubator at 37° C. for 1 hour. Using a microplate spectrophotometer (Biorad's Model 550), the absorbance at 450 nm and 655 nm of each well was measured. The cell growth inhibition activity of the test compound was indicated by the 50% growth inhibition concentration (GI50) thereof. A method of calculating GI50 is described. The absorbance at 655 nm of each well was subtracted from the absorbance at 450 nm thereof to give a value (absorbance difference). The absorbance difference obtained with the cells without being treated with the test compound was taken as 100%, and this was compared with the absorbance difference obtained with the cells treated with the test compound to give the concentration of the compound for 50% cell growth inhibition, and this is referred to as GI50.
With `OCCc1c(Br)c(O)cc(O)c1-c1ccccc1` [Compound 62, 6-Bromo-5-(2-hydroxyethyl)-4-phenylbenzene-1,3-diol], the GI50 is no more than 50 µM. In the case of `CCc1c(O)cc(O)c(-c2ccco2)c1CC(=O)N(C)CCOC` [Compound 257, 2-[2-Ethyl-6-(furan-2-yl)-3,5-dihydroxyphenyl]-N-(2-methoxyethyl)-N-methylacetamide], the GI50 was no more than 50 µM. With `CCc1c(O)cc(O)c(-c2ccccc2)c1CC(O)CO` (stereo not drawn) [Compound 182, 6-Ethyl-5-(2,3-dihydroxypropyl)-4-phenylbenzene-1,3-diol] the figure was no more than 50 µM; with `COC(=O)Cc1cc(O)cc(O)c1-c1cccc(CO)c1` [Compound 76, Methyl 3,5-dihydroxy-2-[3-(hydroxymethyl)phenyl]phenylacetate], no more than 50 µM; with `COC(=O)Cc1cc(O)cc(O)c1-c1cccc(OC(F)(F)F)c1` [Compound 74, Methyl 3,5-dihydroxy-2-[3-(trifluoromethoxy)phenyl]phenylacetate], no more than 50 µM. For `COC(=O)Cc1cc(O)cc(O)c1-c1ccc2c(c1)OCO2` [Compound 273, Methyl 2-(1,3-benzodioxolan-5-yl)-3,5-dihydroxyphenylacetate], the GI50 was no more than 50 µM. In the case of `COCCc1c(Br)c(O)cc(O)c1-c1ccco1` [Compound 243, 6-Bromo-4-(furan-2-yl)-5-(2-methoxyethyl)benzene-1,3-diol], the GI50 is no more than 50 µM. With `COC(=O)Cc1cc(O)cc(O)c1-c1ccc(-c2ccccc2)cc1` [Compound 79, Methyl 3,5-dihydroxy-2-(4-phenylphenyl)phenylacetate] the figure was no more than 50 µM; with `CCc1c(O)cc(O)c(-c2ccccc2)c1CCC(O)CC(O)CO` (stereo not drawn) [Compound 169, 6-Ethyl-4-phenyl-5-(3,5,6-trihydroxyhexyl)benzene-1,3-diol], no more than 50 µM. Turning to `CCc1c(O)cc(O)c(-c2cccc(-c3ccccc3)c2)c1CCOC` [Compound 132, 6-Ethyl-5-(2-methoxyethyl)-4-(3-phenylphenyl)benzene-1,3-diol], the GI50 is no more than 50 µM. On to `CCc1c(O)cc(O)c(-c2cccc(OCc3cccnc3)c2)c1CCOCC(O)CO` (stereo not drawn) [Compound 191, 5-[2-(2,3-Dihydroxypropoxy)ethyl]-6-ethyl-4-[3-(pyridin-3-ylmethyloxy)phenyl]benzene-1,3-diol], for which the GI50 was no more than 50 µM. For the compound `O=C(Cc1c(Br)c(O)cc(O)c1-c1ccccc1)N1CCOCC1` [Compound 35, 2-(2-Bromo-3,5-dihydroxy-6-phenylphenyl)-1-morpholinoethanone], the GI50 was no more than 50 µM. `CCc1c(O)cc(O)c(-c2ccccc2)c1CCOCc1cccnc1` [Compound 188, 6-Ethyl-4-phenyl-5-[2-(pyridin-3-ylmethoxy)ethyl]benzene-1,3-diol]: the GI50 is no more than 50 µM. As for `CCc1c(O)cc(O)c(-c2ccccc2)c1CCCOCC(=O)N(C)C` [Compound 160, 2-[3-(2-Ethyl-3,5-dihydroxy-6-phenylphenyl)propoxy]-N,N-dimethylacetamide], the GI50 was no more than 50 µM. Then `COC(=O)Cc1cc(O)cc(O)c1-c1cccc(C(C)=O)c1` [Compound 8, Methyl 2-(3-acetylphenyl)-3,5-dihydroxyphenylacetate], with no more than 50 µM; and `COC(=O)CCc1ccc(-c2c(O)cc(O)cc2C(OC)c2ccccc2)o1` (stereo not drawn) [Compound 237, Methyl 3-{5-[2,4-dihydroxy-6-(1-methoxy-1-phenylmethyl)phenyl]furan-2-yl}propanoate], with no more than 50 µM; and `COCCc1c(C(C)=O)c(O)cc(O)c1-c1cccc(OCc2ccccc2)c1` [Compound 135, 1-[2,4-Dihydroxy-5-(3-benzyloxyphenyl)-6-(2-methoxyethyl)phenyl]ethanone], with no more than 50 µM. In the case of `COCCc1c(Br)c(O)cc(O)c1-c1cccc(C(N)=O)c1` [Compound 117, 3-[5-Bromo-2,4-dihydroxy-6-(2-methoxyethyl)phenyl]benzamide], the GI50 is no more than 50 µM. With `CCCN(C)C(=O)Cc1c(Br)c(O)cc(O)c1-c1ccccc1` [Compound 36, 2-(2-Bromo-3,5-dihydroxy-6-phenylphenyl)-N-methyl-N-propylacetamide], the GI50 is no more than 50 µM. Then `CN(C)C(=O)Cc1c(Br)c(O)cc(O)c1-c1ccccc1` [Compound 43, 2-(2-Bromo-3,5-dihydroxy-6-phenylphenyl)-N,N-dimethylacetamide], with no more than 50 µM; and `COCCc1c(Br)c(O)cc(O)c1-c1ccccc1` [Compound 64, 6-Bromo-5-(2-methoxyethyl)-4-phenylbenzene-1,3-diol], with no more than 50 µM.

In the case of `CCN(CC)C(=O)Cc1c(Br)c(O)cc(O)c1-c1ccco1` [Compound 241, 2-[2-Bromo-6-(furan-2-yl)-3,5-dihydroxyphenyl]-N,N-diethylacetamide], the GI50 was no more than 50 µM. Consider `CNCCc1c(Br)c(O)cc(O)c1-c1ccccc1` [Compound 98, 6-Bromo-5-[2-(N-methylamino)ethyl]-4-phenylbenzene-1,3-diol], for which the GI50 is no more than 50 µM. Consider `Oc1cc(O)c(-c2ccccc2)c(COCc2ccccc2)c1Br` [Compound 25, 5-(Benzyloxymethyl)-6-bromo-4-phenylbenzene-1,3-diol], for which the GI50 was no more than 50 µM. Then `COCCc1c(CC(C)=O)c(O)cc(O)c1-c1ccccc1` [Compound 94, 1-[2,4-Dihydroxy-6-(2-methoxyethyl)-5-phenylphenyl]propanone], with no more than 50 µM; and `CCc1cc(-c2nc3ccccc3[nH]2)c(O)cc1O` [Compound 278, 4-Benzimidazol-2-yl-6-ethylbenzene-1,3-diol], with no more than 50 µM. For `COc1cc(NC(=O)Cc2c(Br)c(O)cc(O)c2-c2ccco2)cc(OC)c1` [Compound 242, 2-[2-Bromo-6-(furan-2-yl)-3,5-dihydroxyphenyl]-N-(3,5-dimethoxyphenyl)acetamide], the GI50 is no more than 50 µM.

Consider `CCc1c(O)cc(O)c(-c2ccccc2)c1CCOCC(=O)N(C)C` [Compound 157, 2-[2-(2-Ethyl-3,5-dihydroxy-6-phenylphenyl)ethoxy]-N,N-dimethylacetamide], for which the GI50 was no more than 50 µM. In the case of `NC(=O)Cc1c(Br)c(O)cc(O)c1-c1ccccc1` [Compound 41, 2-(2-Bromo-3,5-dihydroxy-6-phenylphenyl)acetamide], the GI50 was no more than 50 µM. Take `CC(=O)Cc1c(Br)c(O)cc(O)c1-c1ccccc1` [Compound 65, 1-(2-Bromo-3,5-dihydroxy-6-phenylphenyl)propan-2-one]: the GI50 is no more than 50 µM. Then `CCc1c(O)cc(O)c(-c2cccc(OCc3csc(C)n3)c2)c1CCOCC(O)CO` (stereo not drawn) [Compound 193, 5-[2-(2,3-Dihydroxypropoxy)ethyl]-6-ethyl-4-[3-(2-methyl-1,3-thiazol-4-ylmethyloxy)phenyl]benzene-1,3-diol], with no more than 50 µM; and `COC(=O)Cc1cc(O)cc(O)c1-c1cccc(C=NO)c1` [Compound 3, Methyl 3,5-dihydroxy-2-[3-(hydroxyiminomethyl)phenyl]phenylacetate], with no more than 50 µM; and `COc1c(Br)c(O)cc(O)c1-c1ccccc1` [Compound 61, 6-Bromo-5-methoxy-4-phenylbenzene-1,3-diol], with no more than 50 µM. Then `COC(=O)Cc1cc(O)cc(O)c1-c1ccc(OC(F)(F)F)cc1` [Compound 75, Methyl 3,5-dihydroxy-2-[4-(trifluoromethoxy)phenyl]phenylacetate], with no more than 50 µM; and `COCCNCCc1c(Br)c(O)cc(O)c1-c1ccccc1` [Compound 100, 6-Bromo-5-{2-[N-(2-methoxyethyl)amino]ethyl}-4-phenylbenzene-1,3-diol], with no more than 50 µM. Then `COC(=O)Cc1cc(O)cc(O)c1-c1cccc(OC)c1` [Compound 81, Methyl 3,5-dihydroxy-2-(3-methoxyphenyl)phenylacetate], with no more than 50 µM. With `COC(=O)Cc1c(C)c(O)cc(O)c1-c1ccccc1` [Compound 56, Methyl 3,5-dihydroxy-6-methyl-2-phenylphenylacetate], the GI50 is no more than 50 µM. Then `COCCN(C)C(=O)Cc1c(C(C)=O)c(O)cc(O)c1-c1cccc(OC)c1` [Compound 141, 2-[2-Acetyl-3,5-dihydroxy-6-(3-methoxyphenyl)phenyl]-N-(2-methoxyethyl)-N-methylacetamide], with no more than 50 µM; and `CC(=O)c1c(O)cc(O)c(-c2ccccc2)c1CCCO` [Compound 124, 1-[2,4-Dihydroxy-6-(3-hydroxypropyl)-5-phenylphenyl]ethanone], with no more than 50 µM. With `CN(CCc1ccccn1)C(=O)Cc1c(Br)c(O)cc(O)c1-c1ccccc1` [Compound 89, 2-(2-Bromo-3,5-dihydroxy-6-phenylphenyl)-N-methyl-N-[2-(pyridin-2-yl)ethyl]acetamide] the figure was no more than 50 µM; with `CCc1c(O)cc(O)c(-c2cccc(OCc3ccncc3)c2)c1CCOCC(O)CO` (stereo not drawn) [Compound 192, 5-[2-(2,3-Dihydroxypropoxy)ethyl]-6-ethyl-4-[3-(pyridin-4-ylmethyloxy)phenyl]benzene-1,3-diol], no more than 50 µM; with `Oc1cc(O)c(-c2ccccc2)c(C2OCCO2)c1Br` [Compound 112, 6-Bromo-5-(1,3-dioxolan-2-yl)-4-phenylbenzene-1,3-diol], no more than 50 µM.
